{"source": "patent US8609847B2", "about": "“Dihydroquinolinone derivatives” (Taisho Pharmaceutical Co., Ltd, priority 2009, dated 2013)", "biological_target": "T1, human H3 receptor (Homo sapiens, UniProt Q9Y5N1)", "T1 construct": "purchased Perkin Elmer ES-392-M400UA; host or cells: CHO-K1 cells (recombinant expression), membrane preparation", "T1 sequence (Q9Y5N1 whole entry)": "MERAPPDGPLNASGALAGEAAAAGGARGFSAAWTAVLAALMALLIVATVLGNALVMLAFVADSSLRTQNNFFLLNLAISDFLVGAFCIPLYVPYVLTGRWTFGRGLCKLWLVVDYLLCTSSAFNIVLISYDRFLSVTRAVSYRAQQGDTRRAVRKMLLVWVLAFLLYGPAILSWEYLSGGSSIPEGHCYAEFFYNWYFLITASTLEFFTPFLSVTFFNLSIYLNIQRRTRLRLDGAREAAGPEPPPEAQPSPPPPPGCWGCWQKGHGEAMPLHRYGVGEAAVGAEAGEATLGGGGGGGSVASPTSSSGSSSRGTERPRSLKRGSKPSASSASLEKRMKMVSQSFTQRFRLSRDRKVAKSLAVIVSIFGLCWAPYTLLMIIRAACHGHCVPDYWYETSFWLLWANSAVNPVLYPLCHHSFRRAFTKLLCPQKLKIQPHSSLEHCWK", "assay": "H3 Receptor Binding Test", "details": "50% inhibition of R(−)-α-methyl[3H]histamine (1 nM) binding; membrane preparation of human H3 receptor-expressing CHO-K1 cells", "description": "A membrane preparation of human H3 receptor-expressing CHO-K1 cells (Perkin Elmer, ES-392-M400UA, 15 μg protein/200 μl), R(−)-α-methyl[^3H]histamine (Amersham, TRK-1017, specific activity: 1.74 TBq/mmol, 1 nM) and a test drug were reacted at room temperature for 1 hour. After completion of the reaction, the reaction mixture was subjected to suction filtration through a 0.3% polyethyleneimine-treated glass filter (GF/C). The glass filter was washed five times with 50 mM Tris-HCl washing solution (pH 7.4) containing 5 mM EDTA. After washing, the glass filter was dried and a scintillator was added thereto, followed by measurement of radioactivity on the filter using a liquid scintillation counter.\nBinding of R(−)-α-methyl[^3H]histamine in the presence of 10 μM R(−)-α-methylhistamine was defined as non-specific binding, and the difference between total binding and non-specific binding of R(−)-α-methyl[^3H]histamine was defined as specific binding of R(−)-α-methyl[^3H]histamine. A fixed concentration (1 nM) of R(−)-α-methyl[^3H]histamine was reacted under the above conditions with each test drug at various concentrations to obtain an inhibition curve. The inhibition curve was used to determine the concentration (IC50) of each test drug required for 50% inhibition of R(−)-α-methyl[^3H]histamine binding."}
{"molecule": "COc1ccccc1N1C(=O)CCc2cc(OCCCN3CCC[C@H]3C)ccc21", "note": "[Compound No. 23, 1-(2-methoxyphenyl)-6-{3-[(2R)-2-methylpyrrolidin-1-yl]propoxy}-3,4-dihydroquinolin-2(1H)-one]", "values": [{"measurement": "IC50", "result": 1.2, "unit": "nM"}]}
{"molecule": "C[C@@H]1CCCN1CCCOc1ccc2c(c1)CCC(=O)N2c1ccc(C#N)cc1", "note": "[Compound No. 1, 4-[6-{3-[(2R)-2-methylpyrrolidin-1-yl]propoxy}-2-oxo-3,4-dihydroquinolin-1(2H)-yl]benzonitrile]", "values": [{"measurement": "IC50", "result": 4.4, "unit": "nM"}]}
{"molecule": "C[C@@H]1CCCN1CCCOc1ccc2c(c1)CCC(=O)N2c1cn(C(=O)OC(C)(C)C)c2ccccc12", "note": "[Compound No. 42, tert-butyl 3-[6-{3-[(2R)-2-methylpyrrolidin-1-yl]propoxy}-2-oxo-3,4-dihydroquinolin-1(2H)-yl]-1H-indole-1-carboxylate]", "values": [{"measurement": "IC50", "result": 34, "unit": "nM"}]}
{"molecule": "C[C@@H]1CCCN1CCCOc1ccc2c(c1)CCC(=O)N2c1cncc2cccnc12", "note": "[Compound No. 40, 6-{3-[(2R)-2-methylpyrrolidin-1-yl]propoxy}-1-(1,6-naphthylizin-8-yl)-3,4-dihydroquinolin-2(1H)-one]", "values": [{"measurement": "IC50", "result": 20, "unit": "nM"}]}
{"molecule": "C[C@@H]1CCCN1CCCOc1ccc2c(c1)CCC(=O)N2c1ccc(Cl)cc1", "note": "[Compound No. 7, 1-(4-chlorophenyl)-6-{3-[(2R)-2-methylpyrrolidin-1-yl]propoxy}-3,4-dihydroquinolin-2(1H)-one]", "values": [{"measurement": "IC50", "result": 1.6, "unit": "nM"}]}
{"molecule": "O=C1CCc2cc(OC3CCN(C4CCC4)CC3)ccc2N1c1cc(F)cc(F)c1", "note": "[Compound No. 68, 6-[(1-cyclobutylpiperidin-4-yl)oxy]-1-(3,5-difluorophenyl)-3,4-dihydroquinolin-2(1H)-one]", "values": [{"measurement": "IC50", "result": 0.72, "unit": "nM"}]}
{"molecule": "CC(C)(C)N1CCC(Oc2ccc3c(c2)CCC(=O)N3c2cccc(C#N)c2)CC1", "note": "[Compound No. 63, 3-{6-[(1-tert-butylpiperidin-4-yl)oxy]-2-oxo-3,4-dihydroquinolin-1(2H)-yl}benzonitrile]", "values": [{"measurement": "IC50", "result": 6.1, "unit": "nM"}]}
{"molecule": "C[C@@H]1CCCN1CCCOc1ccc2c(c1)CCC(=O)N2c1ccccn1", "note": "[Compound No. 34, 6-{3-[(2R)-2-methylpyrrolidin-1-yl]propoxy}-1-(pyridin-2-yl)-3,4-dihydroquinolin-2(1H)-one]", "values": [{"measurement": "IC50", "result": 8.1, "unit": "nM"}]}
{"molecule": "C[C@@H]1CCCN1CCCOc1ccc2c(c1)CCC(=O)N2c1cc(Cl)cc(C#N)c1", "note": "[Compound No. 31, 3-chloro-5-[6-{3-[(2R)-2-methylpyrrolidin-1-yl]propoxy}-2-oxo-3,4-dihydroquinolin-1(2H)-yl]benzonitrile]", "values": [{"measurement": "IC50", "result": 1.9, "unit": "nM"}]}
{"molecule": "COc1ccc(N2C(=O)CCc3cc(OCCCN4CCC[C@H]4C)ccc32)cc1", "note": "[Compound No. 4, 1-(4-methoxyphenyl)-6-{3-[(2R)-2-methylpyrrolidin-1-yl]propoxy}-3,4-dihydroquinolin-2(1H)-one]", "values": [{"measurement": "IC50", "result": 2.7, "unit": "nM"}]}
{"molecule": "Cc1ccc(N2C(=O)CCc3cc(OCCCN4CCC[C@H]4C)ccc32)cc1", "note": "[Compound No. 3, 1-(4-methylphenyl)-6-{3-[(2R)-2-methylpyrrolidin-1-yl]propoxy}-3,4-dihydroquinolin-2(1H)-one]", "values": [{"measurement": "IC50", "result": 1, "unit": "nM"}]}
{"molecule": "C[C@@H]1CCCN1CCCOc1ccc2c(c1)CCC(=O)N2c1cnc2ccccc2c1", "note": "[Compound No. 37, 6-{3-[(2R)-2-methylpyrrolidin-1-yl]propoxy}-3,4-dihydro-2H-1,3′-biquinolin-2-one]", "values": [{"measurement": "IC50", "result": 3.1, "unit": "nM"}]}
{"molecule": "O=C1CCc2cc(OCCCN3CCCC3)ccc2N1c1cccc(F)c1", "note": "[Compound No. 79, 1-(3-fluorophenyl)-6-[3-(pyrrolidin-1-yl)propoxy]-3,4-dihydroquinolin-2(1H)-one]", "values": [{"measurement": "IC50", "result": 17, "unit": "nM"}]}
{"molecule": "C[C@@H]1CC[C@@H](C)N1CCCOc1ccc2c(c1)CCC(=O)N2c1ccc(F)cc1", "note": "[Compound No. 84, 6-{3-[(2R,5R)-2,5-dimethylpyrrolidin-1-yl]propoxy}-1-(4-fluorophenyl)-3,4-dihydroquinolin-2(1H)-one]", "values": [{"measurement": "IC50", "result": 5, "unit": "nM"}]}
{"molecule": "COc1cccc(N2C(=O)CCc3cc(OCCCN4CCC[C@H]4C)ccc32)c1", "note": "[Compound No. 22, 1-(3-methoxyphenyl)-6-{3-[(2R)-2-methylpyrrolidin-1-yl]propoxy}-3,4-dihydroquinolin-2(1H)-one]", "values": [{"measurement": "IC50", "result": 1.6, "unit": "nM"}]}
{"molecule": "COCc1ccc(N2C(=O)CCc3cc(OCCCN4CCC[C@H]4C)ccc32)cc1", "note": "[Compound No. 11, 1-[4-(methoxymethyl)phenyl]-6-{3-[(2R)-2-methylpyrrolidin-1-yl]propoxy}-3,4-dihydroquinolin-2(1H)-one]", "values": [{"measurement": "IC50", "result": 2.9, "unit": "nM"}]}
{"molecule": "C[C@@H]1CCCN1CCCOc1ccc2c(c1)CCC(=O)N2c1cnc2cccnc2c1", "note": "[Compound No. 39, 6-{3-[(2R)-2-methylpyrrolidin-1-yl]propoxy}-1-(1,5-naphthylizin-3-yl)-3,4-dihydroquinolin-2(1H)-one]", "values": [{"measurement": "IC50", "result": 4.4, "unit": "nM"}]}
{"molecule": "COc1ccc(N2C(=O)CCc3cc(OC4CCN(C(C)(C)C)CC4)ccc32)cn1", "note": "[Compound No. 65, 6-[(1-tert-butylpiperidin-4-yl)oxy]-1-(6-methoxypyridin-3-yl)-3,4-dihydroquinolin-2(1H)-one]", "values": [{"measurement": "IC50", "result": 12, "unit": "nM"}]}
{"molecule": "C[C@@H]1CCCN1CCCOc1cc(Cl)c2c(c1)CCC(=O)N2c1ccc(F)cc1", "note": "[Compound No. 85, 8-chloro-1-(4-fluorophenyl)-6-{3-[(2R)-2-methylpyrrolidin-1-yl]propoxy}-3,4-dihydroquinolin-2(1H)-one]", "values": [{"measurement": "IC50", "result": 11, "unit": "nM"}]}
{"molecule": "C[C@@H]1CCCN1CCCOc1ccc2c(c1)CCC(=O)N2c1ccc2c(c1)OCO2", "note": "[Compound No. 44, 1-(1,3-benzodioxol-5-yl)-6-{3-[(2R)-2-methylpyrrolidin-1-yl]propoxy}-3,4-dihydroquinolin-2(1H)-one]", "values": [{"measurement": "IC50", "result": 1.2, "unit": "nM"}]}
{"molecule": "C[C@@H]1CCCN1CCCOc1ccc2c(c1)CCC(=O)N2c1ccc2c(ccn2C(=O)OC(C)(C)C)c1", "note": "[Compound No. 41, tert-butyl 5-[6-{3-[(2R)-2-methylpyrrolidin-1-yl]propoxy}-2-oxo-3,4-dihydroquinolin-1(2H)-yl]-1H-indole-1-carboxylate]", "values": [{"measurement": "IC50", "result": 53, "unit": "nM"}]}
{"molecule": "Cc1ccc(N2C(=O)CCc3cc(OCCCN4CCC[C@H]4C)ccc32)cn1", "note": "[Compound No. 47, 1-(6-methylpyridin-3-yl)-6-{3-[(2R)-2-methylpyrrolidin-1-yl]propoxy}-3,4-dihydroquinolin-2(1H)-one]", "values": [{"measurement": "IC50", "result": 2.9, "unit": "nM"}]}
{"molecule": "C[C@@H]1CCCN1CCCOc1ccc2c(c1)CCC(=O)N2c1cc(F)cc(F)c1", "note": "[Compound No. 27, 1-(3,5-difluorophenyl)-6-{3-[(2R)-2-methylpyrrolidin-1-yl]propoxy}-3,4-dihydroquinolin-2(1H)-one]", "values": [{"measurement": "IC50", "result": 2.1, "unit": "nM"}]}
{"molecule": "Cc1ccc(N2C(=O)CCc3cc(OCCCN4CCC[C@H]4C)ccc32)cc1C#N", "note": "[Compound No. 32, 2-methyl-5-[6-{3-[(2R)-2-methylpyrrolidin-1-yl]propoxy}-2-oxo-3,4-dihydroquinolin-1(2H)-yl]benzonitrile]", "values": [{"measurement": "IC50", "result": 2.7, "unit": "nM"}]}
{"molecule": "COc1ccc(N2C(=O)CCc3cc(OCCCN4CCC[C@H]4C)ccc32)cn1", "note": "[Compound No. 48, 1-(6-methoxypyridin-3-yl)-6-{3-[(2R)-2-methylpyrrolidin-1-yl]propoxy}-3,4-dihydroquinolin-2(1H)-one]", "values": [{"measurement": "IC50", "result": 8.7, "unit": "nM"}]}
{"molecule": "COc1ccc(N2C(=O)CCc3cc(OC4CCN(C5CCC5)CC4)ccc32)cn1", "note": "[Compound No. 67, 6-[(1-cyclobutylpiperidin-4-yl)oxy]-1-(6-methoxypyridin-3-yl)-3,4-dihydroquinolin-2(1H)-one]", "values": [{"measurement": "IC50", "result": 2.7, "unit": "nM"}]}
{"molecule": "N#Cc1cccc(N2C(=O)CCc3cc(OC4CCN(C5CCC5)CC4)ccc32)c1", "note": "[Compound No. 74, 3-{6-[(1-cyclobutylpiperidin-4-yl)oxy]-2-oxo-3,4-dihydroquinolin-1(2H)-yl}benzonitrile]", "values": [{"measurement": "IC50", "result": 1.3, "unit": "nM"}]}
{"molecule": "C[C@@H]1CCCN1CCCOc1ccc2c(c1)CCC(=O)N2c1ccc(CO)cc1", "note": "[Compound No. 10, 1-[4-(hydroxymethyl)phenyl]-6-{3-[(2R)-2-methylpyrrolidin-1-yl]propoxy}-3,4-dihydroquinolin-2(1H)-one]", "values": [{"measurement": "IC50", "result": 1.6, "unit": "nM"}]}
{"molecule": "C[C@@H]1CCCN1CCCOc1ccc2c(c1)CCC(=O)N2c1ccc(-c2cnco2)cc1", "note": "[Compound No. 19, 6-{3-[(2R)-2-methylpyrrolidin-1-yl]propoxy}-1-[4-(1,3-oxazol-5-yl)phenyl]-3,4-dihydroquinolin-2(1H)-one]", "values": [{"measurement": "IC50", "result": 4, "unit": "nM"}]}
{"molecule": "C[C@@H]1CCCN1CCCOc1ccc2c(c1)CCC(=O)N2c1c[nH]c2ccccc12", "note": "[Compound No. 57, 1-(1H-indol-3-yl)-6-{3-[(2R)-2-methylpyrrolidin-1-yl]propoxy}-3,4-dihydroquinolin-2(1H)-one]", "values": [{"measurement": "IC50", "result": 0.76, "unit": "nM"}]}
{"molecule": "CCOc1ccc(N2C(=O)CCc3cc(OCCCN4CCC[C@H]4C)ccc32)cc1", "note": "[Compound No. 5, 1-(4-ethoxyphenyl)-6-{3-[(2R)-2-methylpyrrolidin-1-yl]propoxy}-3,4-dihydroquinolin-2(1H)-one]", "values": [{"measurement": "IC50", "result": 3.9, "unit": "nM"}]}
{"molecule": "O=C1CCc2cc(OC3CCN(CC4CC4)CC3)ccc2N1c1ccc(F)cc1", "note": "[Compound No. 76, 6-{[1-(cyclopropylmethyl)piperidin-4-yl]oxy}-1-(4-fluorophenyl)-3,4-dihydroquinolin-2(1H)-one]", "values": [{"measurement": "IC50", "result": 9.8, "unit": "nM"}]}
{"molecule": "O=C1CCc2cc(OCCCN3CCCC3)ccc2N1c1cc(F)cc(F)c1", "note": "[Compound No. 80, 1-(3,5-difluorophenyl)-6-[3-(pyrrolidin-1-yl)propoxy]-3,4-dihydroquinolin-2(1H)-one]", "values": [{"measurement": "IC50", "result": 22, "unit": "nM"}]}
{"molecule": "C[C@@H]1CCCN1CCCOc1ccc2c(c1)CCC(=O)N2c1ccc(Cl)cn1", "note": "[Compound No. 49, 1-(5-chloropyridin-2-yl)-6-{3-[(2R)-2-methylpyrrolidin-1-yl]propoxy}-3,4-dihydroquinolin-2(1H)-one]", "values": [{"measurement": "IC50", "result": 4, "unit": "nM"}]}
